This is an account of results in ChEMBL document CHEMBL1126441, “A novel and selective class of azabicyclic muscarinic agonists incorporating an N-methoxy imidoyl halide or nitrile functionality” (Bioorg Med Chem Lett, 1992).

The structures appear in SMILES notation.

Data set [1] concerns the target Muscarinic acetylcholine receptor. Kind of data set: In vitro inhibition of [3H]quinuclidinyl benzilate (QNB) binding to muscarinic receptors of rat cerebral cortex. The class given is tissue-based.
For data set [2] the target is unchanged. In words: In vitro inhibition of oxotremorine-M (OXO-M) binding to muscarinic receptors of rat cerebral cortex. The class given is tissue-based.
Data set [3] addresses Muscarinic acetylcholine receptor (Rattus norvegicus) (UniProt P08482+P08483+P08485+P08911+P10980). In words: Relative affinities compared to oxotremorine-M (OXO-M) and [3H]quinuclidinyl benzilate (QNB) for muscarinic receptors. The class given is protein assay.
The nature of data set [4]: Partition coefficient (logP). The class given is physicochemical. Particulars: octanol/water.
Data set [5] in a line: LogD value represents the distribution coefficient at pH 7.3. The class given is physicochemical. Particulars: octanol/water.
The nature of data set [6]: Compound was evaluated for its dissociation constant. It is filed as ADME.
Data set [7] relates to Rattus norvegicus. In words: Effective dose required to cause 50% fall in mean blood pressure (BP) by the compound on iv administration. The class given is functional.
Data set [8] concerns Rattus norvegicus. In words: The effective dose required to produce a change in the mean power spectrum of the EEG equivalent to that of a standard dose (0.32 mg/kg) of arecoline on iv administration. The class given is functional.
The nature of data set [9]: Ratio of 50% fall in mean blood pressure (BP) to rhythmical slow wave activity (RSA) was determined. It is filed as functional.

On to `CO/N=C(\F)[C@H]1CN2CC[C@H]1C2`, for which the concentration for half-maximal inhibition (IC50) in data set [1] stood at 3100 nM; in data set [2], 9 nM. Moreover, in [3], the Ratio was 344.
`CO/N=C(\Cl)C12CCN(CC1)C2`: the IC50 in data set [1] is on record as 8500 nM; in data set [2], 51 nM. Moreover, the Ratio in [3] is 167.
In the case of `CO/N=C(\C#N)[C@H]1CN2CCC1C2` (some centres undefined), the IC50 in [1] amounted to 2300 nM; in [2], 23 nM.
Turning to `CO/N=C(\Br)C12CCCN(CC1)C2` (centres undefined), the IC50 in data set [1] is recorded as 2300 nM; in data set [2], 190 nM. Also, the Ratio in data set [3] came out at 12.
In the case of `CO/N=C(\F)C12CCN(CC1)C2`, the half-inhibitory concentration (IC50) in data set [1] is 15500 nM; in data set [2], 44 nM. For the same compound, the Ratio in [3] stood at 352.
Regarding `CO/N=C(\F)C12CCCN(CC1)C2` (centres undefined), in data set [4], the logP came out at 1.01. The logD in [5] is -0.76. Moreover, the pKa in data set [6] was 9.06. Moreover, the IC50 in [1] is 2400 nM; in data set [2], 43 nM. For the same compound, the median effective dose (ED50) in data set [7] was 0.03 mg/kg. The “ED Arec” value in data set [8] is 0.012 mg/kg. The Ratio in [9] was found to be 2.5; in data set [3], 56.
In the case of `CO/N=C(\Br)[C@H]1CN2CC[C@H]1C2`, the 50% inhibitory concentration (IC50) in data set [1] is on record as 3000 nM; in data set [2], 59 nM. The Ratio in data set [3] was determined as 51.
Regarding `CO/N=C(\C#N)C1CN2CCC1CC2` (centres undefined), the logP in data set [4] turned out to be 1.56. The pH-dependent lipophilicity (logD) in data set [5] is -0.11. The same compound showed a pKa in data set [6] of 8.96. Further, the IC50 in [1] was 470 nM; in data set [2], 33 nM. Moreover, the ED50 in [7] was > 0.56 mg/kg. The “ED Arec” value in data set [8] came to 0.052 mg/kg. Further, the figures for the Ratio in data set [9] and in data set [3] were >10.8 and 14, respectively.
For the compound `CO/N=C(\Cl)C12CCCN(CC1)C2` (centres undefined), the lipophilicity (logP) in [4] stood at 2.12. The compound further displayed a logD in [5] of 0.18. Also, the pKa in data set [6] was 9.24. The half-maximal inhibitory concentration (IC50) worked out at 3000 nM in [1] and 72 nM in data set [2]. The same compound had a 50% effective dose (ED50) in data set [7] of 0.32 mg/kg. In addition, the “ED Arec” value in data set [8] was determined as 0.029 mg/kg. Further, the Ratio in data set [9] came to 11; in data set [3], 42.
With `CO/N=C(\C#N)C12CCCN(CC1)C2` (centres undefined), the log partition coefficient (logP) in data set [4] was 1.49. Moreover, the log distribution coefficient (logD) in data set [5] was -0.18. The pKa in data set [6] worked out at 8.96. For the same compound, the concentration for half-maximal inhibition (IC50) in data set [1] came out at 220 nM; in [2], 11 nM. The 50% effect level in data set [7] (ED50) was put at a dose of 0.02 mg/kg. For the same compound, in data set [8], the “ED Arec” value turned out to be 0.005 mg/kg. Also, the Ratio in data set [9] was 4.
Turning to `CO/N=C(\Cl)C1CN2CCC1CC2` (centres undefined), the figures for the IC50 in [1] and in data set [2] were 1100 nM and 69 nM, respectively. Also, the Ratio in data set [3] worked out at 16.
In the case of `CO/N=C(\F)C1CN2CCC1CC2` (centres undefined), the results for the half-inhibitory concentration (IC50) in data set [1] and in [2] were 2000 nM and 34 nM, respectively. Also, the Ratio in data set [3] came to 65.
Turning to `CO/N=C(\C#N)C12CCN(CC1)C2`, the IC50 is listed as 1950 nM in [1] and 19 nM in [2]. Also, in data set [3], the Ratio came out at 103.
For the compound `CO/N=C(\C)C12CCCN(CC1)C2` (centres undefined), the log partition coefficient (logP) in data set [4] amounted to 1.65. The logD in data set [5] is -1.13. This compound also showed a pKa in [6] of 10.1. The compound further yielded a 50% effective dose (ED50) in data set [7] of 0.068 mg/kg. Besides, in data set [8], the “ED Arec” value came out at 0.068 mg/kg. In data set [9], the Ratio is given as 1.
For `CO/N=C(\Cl)[C@H]1CN2CC[C@H]1C2`, the values for the IC50 in [1] and in data set [2] were 3000 nM and 64 nM, respectively. The Ratio in [3] came out at 47.
For `CO/N=C(\Br)C12CCN(CC1)C2`, in that order: 8100 nM, 160 nM and 51.
In the case of `CO/N=C(\C)C1CN2CCC1CC2` (centres undefined), in data set [4], the logP was found to be 1.88. The log distribution coefficient (logD) in data set [5] was -1.09. In data set [6], this compound registered a pKa of 10.3. In addition, the 50% effective dose (ED50) in [7] was > 0.1 mg/kg. In addition, the “ED Arec” value in data set [8] is 0.31 mg/kg. In [9], the Ratio is on record as >0.35.

The term IC50 denotes the midpoint of a concentration-inhibition curve. By logP is commonly meant the decadic logarithm of the partition coefficient of the neutral form, usually between octanol and water. Read a low logP as a more hydrophilic compound. Broadly, the logD is the decadic logarithm of the distribution of all forms, ionised or not, between an organic phase and buffer at a given pH. Broadly, the pKa is the negative logarithm of the acid dissociation constant. A low value points to a stronger acid or weaker base. Broadly, the ED50 is the dose that gives a 50% effect, or the effect in half of the subjects. Read a low ED50 as greater potency.
